Data set [1] is described as follows: Solubility in water of the chloride salts.
The target of another data set is BSA (Bos taurus, UniProt P02769). Kind of data set: 'Blank' bioconjugation: non-covalent binding of unreactive fluorophore to BSA (gel filtration, UV analysis). As to conditions: after PD-10 gel filtration. From the text: (§1) Experiments have been undertaken to determine the level of non-covalent binding of fluorophore to the protein surface (BSA and avidin). ‘Blank’ bioconjugations using mixtures of the unreactive DPCH and DPBC derivatives 2,3-dihydroxy-5-(4-methoxyphenyl)-15-(4-acetomidophenyl)chlorin (higher Rf regioisomer) and 2,3,12,13-tetrahydroxy-5-(4-acetomidophenyl)-15-(4-methoxyphenyl) bacteriochlorin (higher Rf […] stereoisomer) with both BSA and avidin have been carried out and the resultant protein solutions have been purified by gel filtration (PD-10) as described for the reactive probes described earlier. […] For BSA or avidin, 1 unreactive DPCH binds to each protein molecule, whereas DPBC is less than 1 due probably to its increased polarity and non-amphiphilic nature.

A further data set deals with avidin (Gallus gallus, UniProt P02701). The data set is described as follows: 'Blank' bioconjugation: non-covalent binding of unreactive fluorophore to avidin (gel filtration, UV analysis). Particulars: after PD-10 gel filtration.
Description: as §1

The test system of data set [2] is Colo 320 cells. The data set is described as follows: FACS conjugate binding analysis. The class given is cell-based, human. As to conditions: FITC detection, 3 repeats. How it is done:
Wash flask of cells with phosphate buffered saline (PBS) pH 7.3. Treat with 5 mM EDTA in PBS for 10 min at 37C. Tap flask to dislodge cells, place in 50 mL polypropylene tube and pellet at 400 g 3 min. Resuspend in 10 mL PBS and count cells. Place 2×10^5 in FACS tube (Falcon 2054) and wash with 1 mL PBS by centrifugation (400 g 3 min) and resuspension by agitation
Block cells in 500 μL 2% Marvel milk powder in PBS, 1% BSA 30 min RT
Wash cells in 1 mL PBS/BSA/Azide centifuge and resuspend pellet (as above)
Add 10 μL appropriate antibody dilution. Incubate on ice 1 h
Add 50 μL Rabbit anti-mouse:FITC (Serotec, 1/100 dilution) and incubate on ice in the dark 1 h
Wash cells in 1 mL PBS/BSA/Azide centiflige (as above) and resuspend pellet in 400 μL PBS/BSA/Azide.
Run samples through FACS machine using CellQuest acquisition software to collect data.
FACS analyses were run in accordance with Methodology Description 5.

Data set [3] concerns Colo 320 cells. Kind of data set: Standard photocytotoxicity test (MTT). Particulars: 3.6J/cm2 filtered red light, MTT % cell survival. The class given is cell-based, human. How it is done: Cells are grown to confluence or appropriate density then washed 2 times with PBS (phosphate buffered saline) to eliminate all trace of FBS (fretal bovine serum). Cell density is adjusted to 1.5×10^6 cells/ml in medium without FBS and these are then incubated for 1 hour in the dark (37 degrees C., 5% CO2) with a range of photosensitiser/conjugate concentrations. Post incubation, cells are washed further with medium (without FBS)to eliminate unbound photosensitiser, then resuspended and seeded in 96 wells plates (1×10^5 cells/well) in quadruplate. Plates are then either irradiated (3.6J/cm2 of filtered red light […]) or left in the dark as “dark toxicity controls” for the same period of time (14 minutes).Five microliters (5%/well) of FBS is added after the irradiation/dark period and the plates are returned to the incubator overnight. Twenty to 24 hours after treatment, 10 μl of MTT solution (Sigma Thiazolyl blue, 4.8×10^−4M in PBS)is added per well and the plates are returned to the incubator until color develops (between 1 and 4 hours). A solution of acid-alcohol (100 μl/well of 0.04N HCL in isopropanol) is the added and mixed thoroughly to dissolve the dark blue crystals. Plates are then read at 570 nm in a microplate reader and the % cell survival calculated against controls. […]

Sequence of avidin (P02701 25-152, species assumed): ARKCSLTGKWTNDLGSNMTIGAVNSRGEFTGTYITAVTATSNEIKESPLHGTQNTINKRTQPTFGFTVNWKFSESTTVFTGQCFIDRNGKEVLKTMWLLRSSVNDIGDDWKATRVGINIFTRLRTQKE
Sequence of BSA (P02769 25-607): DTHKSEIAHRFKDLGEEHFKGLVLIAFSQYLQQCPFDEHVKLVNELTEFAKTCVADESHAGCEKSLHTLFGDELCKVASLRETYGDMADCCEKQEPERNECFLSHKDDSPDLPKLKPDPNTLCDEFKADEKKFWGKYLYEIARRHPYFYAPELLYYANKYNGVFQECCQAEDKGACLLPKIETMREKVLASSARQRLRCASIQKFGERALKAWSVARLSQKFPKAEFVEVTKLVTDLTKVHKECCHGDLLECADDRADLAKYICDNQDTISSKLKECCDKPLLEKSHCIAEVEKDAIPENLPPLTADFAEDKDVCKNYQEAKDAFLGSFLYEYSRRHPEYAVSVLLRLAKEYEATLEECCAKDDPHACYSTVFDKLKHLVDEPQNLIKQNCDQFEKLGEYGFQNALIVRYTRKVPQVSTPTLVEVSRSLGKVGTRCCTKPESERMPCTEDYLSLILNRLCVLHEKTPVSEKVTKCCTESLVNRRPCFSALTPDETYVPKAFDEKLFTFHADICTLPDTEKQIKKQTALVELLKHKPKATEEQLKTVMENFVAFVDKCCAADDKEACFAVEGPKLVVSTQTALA

As to `Oc1cc(O)cc(-c2c3nc(c(-c4cc(O)cc(O)c4)c4ccc([nH]4)c(-c4cc(O)cc(O)c4)c4nc(c(-c5ccc(N=C=S)cc5)c5ccc2[nH]5)C=C4)C=C3)c1`, the melting point (as a rule, the temperature, or range, at which the solid turns liquid) is > 350 °C (dec.). For the molecule `S=C=Nc1ccc(-c2c3nc(c(-c4ccncc4)c4ccc([nH]4)c(-c4ccncc4)c4nc(c(-c5ccncc5)c5ccc2[nH]5)C=C4)C=C3)cc1`, the melting point was > 350 °C (dec.).

In the case of `S=C=Nc1ccc(-c2c3nc(c(-c4cccnc4)c4ccc([nH]4)c(-c4cccnc4)c4nc(c(-c5cccnc5)c5ccc2[nH]5)C=C4)C=C3)cc1`, the melting point is > 350 °C (dec.). “5-(4-Isothiocyanatophenyl)-10,15,20-tris(4-N-methylpyridiniumyl) porphyrin Trichloride [Example 6]”: the solubility in water entry in data set [1] was “water soluble”. As for `COc1ccc(-c2c3nc(cc4ccc([nH]4)c(-c4ccc(NC(C)=O)cc4)c4nc(cc5ccc2[nH]5)C=C4)C(O)C3O)cc1` (stereo not shown) [Example 10, 17,18-Dihydroxy-5-(4-acetamidophenyl)-15-(4-methoxyphenyl)chlorin], the “unreactive fluorophore molecules non-covalently bound to each protein molecule” value at BSA and at avidin was 1 in each case.

Consider `COc1ccc(-c2c3nc(cc4ccc([nH]4)c(-c4ccc(NC(C)=O)cc4)c4nc(cc5ccc2[nH]5)C(O)C4O)C(O)C3O)cc1` (stereo not shown) [Example 12, 7,8,17,18-tetrahydroxy-5-(4-acetamidophenyl)-15-(4-methoxyphenyl)bacteriochlorin], for which the “unreactive fluorophore molecules non-covalently bound to each protein molecule” value on BSA and on avidin was “less than 1” each time. As to `Nc1ccc(-c2c3nc(c(-c4cc(O)cc(O)c4)c4ccc([nH]4)c(-c4cc(O)cc(O)c4)c4nc(c(-c5cc(O)cc(O)c5)c5ccc2[nH]5)C=C4)C=C3)cc1` [OH6-NH2, 5-(4-Aminophenyl)-10,15,20-tris(3,5-dihydroxyphenyl)porphyrin], the melting point was > 350 °C (dec.).

B1: OH6/17.1A: OH6 conjugated with 17.1A monoclonal antibody, MRs of 2.5, 5, 10 and 20 (conjugate, chains of the INN, looked up)
VH: QVQLQQSGAELVRPGTSVKVSCKASGYAFTNYLIEWVKQRPGQGLEWIGVINPGSGGTNYNEKFKGKATLTADKSSSTAYMQLSSLTSDDSAVYFCARDGPWFAYWGQGTLVTVSA
VL: NIVMTQSPKSMSMSVGERVTLTCKASENVVTYVSWYQQKPEQSPKLLIYGASNRYTGVPDRFTGSGSATDFTLTISSVQAEDLADYHCGQGYSYPYTFGGGTKLEIK
modifications: conjugated to OH6
Turning to B1, the “binding to Colo 320 cells” value in the data set with Colo 320 cells [2] was “has bound to the cells”. Also, the photocytotoxicity following irradiation result in the data set on Colo 320 cells [3] is “significant increase in cytotoxicity on irradiation”.

B2: PYR/17.1A: PYR conjugated with 17.1A monoclonal antibody (conjugate, chains of the INN, looked up)
VH: QVQLQQSGAELVRPGTSVKVSCKASGYAFTNYLIEWVKQRPGQGLEWIGVINPGSGGTNYNEKFKGKATLTADKSSSTAYMQLSSLTSDDSAVYFCARDGPWFAYWGQGTLVTVSA
VL: NIVMTQSPKSMSMSVGERVTLTCKASENVVTYVSWYQQKPEQSPKLLIYGASNRYTGVPDRFTGSGSATDFTLTISSVQAEDLADYHCGQGYSYPYTFGGGTKLEIK
modifications: conjugated to PYR
notes: PYR conjugated with 17.1A monoclonal antibody
As to B2, the “binding to Colo 320 cells” value in the data set with Colo 320 cells [2] was “has bound to the cells”. Besides, the photocytotoxicity following irradiation entry in the data set with Colo 320 cells [3] was “significant increase in cytotoxicity on irradiation”.

Values taken from patent US20030203888A1, “Chromophores” (priority 2001, published 2003).
